Literature values in patent publication US20180042845A1, “PREPARATIONS OF CANNABIS EMULSIONS AND METHODS THEREOF” (ONE WORLD CANNABIS LTD., priority 2015, published 2018).

Assays:
CB2 receptor = CB2 receptor (Homo sapiens, UniProt P34972)
Chain of CB2 receptor (P34972 whole entry): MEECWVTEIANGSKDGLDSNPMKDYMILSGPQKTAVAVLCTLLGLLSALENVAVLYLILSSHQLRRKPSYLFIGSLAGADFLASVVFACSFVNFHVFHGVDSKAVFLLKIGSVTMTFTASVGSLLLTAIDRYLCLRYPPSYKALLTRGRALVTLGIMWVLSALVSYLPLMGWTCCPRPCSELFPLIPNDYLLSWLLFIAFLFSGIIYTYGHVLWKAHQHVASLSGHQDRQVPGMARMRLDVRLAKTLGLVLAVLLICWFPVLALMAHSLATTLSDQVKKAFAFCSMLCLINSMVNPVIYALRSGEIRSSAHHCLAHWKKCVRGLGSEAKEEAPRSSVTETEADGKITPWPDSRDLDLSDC

| Structure (SMILES) | Affinity for CB2 receptors (CB2 receptor) | Fraction of administered dose reaching systemic circulation (oral, first pass hepatic metabolism and high lipid solubility) | Fraction absorbed after a single oral dose (single dose) |
| --- | --- | --- | --- |
| C=C(C)[C@@H]1CCC(C)=C[C@H]1c1c(O)cc(CCCCC)cc1O [Cannabidiol] | very low affinity | – | – |
| CCCCCc1cc(O)c2c(c1)OC(C)(C)[C@@H]1CCC(C)=C[C@@H]21 [THC, Tetrahydrocannabinol] | – | 10-20% | 90-95% |
